This is an account of results in patent publication US20260263413A1 (priority 2019, published 2026).

In general, bioavailability refers to the share of a dose that reaches the circulation, judged against a reference dose that is usually intravenous. A word on the Tmax: it is the time from dosing to the highest level. By AUC is commonly meant the area under the concentration-time curve, a measure of exposure. Low values mean low exposure, high ones high exposure. In general, Cmax refers to the highest concentration seen after dosing.

The nature of series [1]: Pharmacokinetic (PK) data from oral administration of DHM in enteric capsules, with or without sodium caprate. It is filed as in vivo, Sprague-Dawley rats. Particulars: Sprague-Dawley, rat, blood; for Tmax / AUC / Cmax: po; for AUC: DHM AUC; for Cmax: DHM Cmax.
Series [2] in a line: in vivo. Particulars: Sprague-Dawley, rat, 1.3 mg/kg.
Procedure: A pharmacokinetic study can be carried out to evaluate animal pharmacokinetics.
A blood sample was collected from each rat at predetermined times and analyzed with LC-MS/MS. […] Error bars for each point in time based on the results for each of the rats in the set are shown. […] Bioavailability (Fabs) was calculated as
where AUCoral and Doral indicate the AUC and dosage for a given oral administration, and AUCIV and Div indicate the AUC and dosage for the intravenous (IV) administration set forth in Example 1, above.
Error bars for each point in time based on the results for each of the rats in the set are shown.
The nature of series [3]: Pharmacokinetic (PK) data from intravenous (IV) administration of DHM, blood samples analysed by LC-MS/MS. Type of series: in vivo, Sprague-Dawley rats. The settings on record: Sprague-Dawley, rat, 1 mg/kg. How it is done: The DUNHM was administered in an 0.9% saline solution. No sodium caprate (sodium decanoate, Na caprate) was administered.
For series [4] the following is noted: background statement, ref. [31]; cited from earlier work.
[5] abbreviates: 1.1 mg/kg, 73.1±1.1 mg/kg crystalline DHM, enteric capsules (Eudragit L100-55 coated), Na caprate:DHM 0:1, FIG. 3A.
Where [6] appears, read: 70.6±2.7 mg/kg crystalline DHM, enteric capsules, sodium caprate approx. 141.2 mg/kg (2:1), FIG. 3D.
[7] abbreviates: 75.5±2.0 mg/kg crystalline DHM, enteric capsules, sodium caprate approx. 75.5 mg/kg (1:1), FIG. 3C.
Where [8] appears, read: 92.6±3.0 mg/kg crystalline DHM, enteric capsules, sodium caprate approx. 23.2 mg/kg (1:4), FIG. 3B.

For the compound `O=C1c2c(O)cc(O)cc2O[C@H](c2cc(O)c(O)c(O)c2)[C@H]1O` [DHM, dihydromyricetin], the values for the bioavailability in series [1] (1.1 mg/kg) and in series [2] (DHM Bioavailability (Fabs)) were 19.5 ± 9.5% and 34.1 ± 12.7%, respectively. Moreover, the Tmax in series [1] (setting [5]) is 5.4 ± 2.6 h; in series [1] (setting [6]), 4 h; in series [1] (setting [7]), 4 h; in series [1] (setting [8]) it was 6 h; in series [2] (po, Tmax), 4.7 ± 1.8 h. For the same compound, the AUC was determined as 167 ± 83.3 ng·h/mL in series [1] (setting [5]); 431 ± 101 ng·h/mL in series [1] (setting [6]); 284 ± 20.1 ng·h/mL in series [1] (setting [7]); 222 ± 44.3 ng·h/mL in series [1] (setting [8]); 314 ± 115 ng·h/mL in series [2] (po, DHM AUC); 11.6 ± 4.9 ng·h/mL in series [3]. The Cmax is 27.9 ± 1.5 ng/mL in series [1] (setting [5]); 70.2 ± 6.5 ng/mL in series [1] (setting [6]); 62.3 ± 4.3 ng/mL in series [1] (setting [7]); 52.7 ± 3.6 ng/mL in series [1] (setting [8]); 46.2 ± 4 ng/mL in series [2] (po, DHM Cmax); 12.5 ± 0.5 ng/mL in series [3]. The oral bioavailability entry in series [4] is “less than 5%”.
